Reference: ChEMBL document CHEMBL1158425 (Bioorg Med Chem Lett, 2009)

What was measured:
[1] = Ratio of IC50 for drug to IC50 for IDN 5390 against human paclitaxel-resistant A2780TC3 cells overexpressing class 3 beta-tubulin; type: functional
A2780 [2] = assay: Growth inhibition of human adriamycin and doxorubicin-resistant A2780 cells after 72 hrs; type: functional, cell-based; conditions: A2780, 72 h
[3] = Ratio of IC50 for drug to IC50 for paclitaxel against human paclitaxel-resistant A2780TC3 cells overexpressing class 3 beta-tubulin; type: functional
A2780 [4] = assay: Growth inhibition of human cisplatin-resistant A2780 cells after 72 hrs; type: functional, cell-based; conditions: A2780, 72 h
A2780 [5] = assay: Ratio of IC50 for drug to IC50 for paclitaxel against human adriamycin and doxorubicin-resistant A2780 cells; type: functional
A2780 [6] = assay: Ratio of IC50 for drug to IC50 for IDN 5390 against human adriamycin and doxorubicin-resistant A2780 cells; type: functional
[7] = Ratio of IC50 for drug to IC50 for paclitaxel against human paclitaxel-resistant A2780TC1 cells overexpressing class 3 beta-tubulin; type: functional
[8] = Growth inhibition of human paclitaxel-resistant A2780TC1 cells overexpressing class 3 beta-tubulin after 72 hrs; type: functional, cell-based; conditions: A2780TC1, 72 h
A2780 [9] = assay: Growth inhibition of human topotecan-resistant A2780 cells after 72 hrs; type: functional, cell-based; conditions: A2780, 72 h
A2780 [10] = assay: Growth inhibition of human wild type A2780 cells after 72 hrs; type: functional, cell-based; conditions: A2780, 72 h
A2780 [11] = assay: Resistant factor, IC50 for human paclitaxel-resistant A2780TC1 cells overexpressing class 3 beta-tubulin to IC50 for human wild type A2780 cells; type: functional, cell-based
[12] = Growth inhibition of human paclitaxel-resistant A2780TC3 cells overexpressing class 3 beta-tubulin after 72 hrs; type: functional, cell-based; conditions: A2780TC3, 72 h
[13] = Ratio of IC50 for IDN 5390 to IC50 for paclitaxel against human paclitaxel-resistant A2780TC3 cells overexpressing class 3 beta-tubulin; type: functional
A2780 [14] = assay: Resistant factor, IC50 for human paclitaxel-resistant A2780TC3 cells overexpressing class 3 beta-tubulin to IC50 for human wild type A2780 cells; type: functional

Structure (SMILES)	IC50 (A2780 [2])	IC50 (A2780 [4])	IC50 (A2780 [9])	IC50 (A2780 [10])	Ratio IC50 [1]	Ratio IC50 [3]	Ratio IC50 (A2780 [5])	Ratio IC50 (A2780 [6])	Ratio IC50 [7]	IC50 [8]	Ratio IC50 (A2780 [11])	IC50 [12]	Ratio IC50 [13]	Ratio IC50 (A2780 [14])
CC(=O)O[C@@]1([C@@H]2/C(C)=C(/O)C(=O)C3=C(C)[C@@H](OC(=O)[C@H](O)[C@H](C=C(C)C)NC(=O)OC(C)(C)C)C[C@@](O)([C@H]2OC(=O)c2cccc(F)c2)C3(C)C)CO[C@@H]1CCO	2220 nM				3	24								
CC(=O)O[C@@]1([C@@H]2/C(C)=C(/O)C(=O)C3=C(C)[C@@H](OC(=O)[C@H](O)[C@H](CC(C)C)NC(=O)OC(C)(C)C)C[C@@](O)([C@H]2OC(=O)c2cccc(F)c2)C3(C)C)CO[C@@H]1CCO	3730 nM	11.8 nM	12.8 nM	11.1 nM	3	24			2.3	1500 nM		460 nM		
CC(=O)O[C@@]1([C@@H]2/C(C)=C(/O)C(=O)C3=C(C)[C@@H](OC(=O)[C@H](O)[C@H](CC(C)C)NC(=O)OC(C)(C)C)C[C@@](O)([C@H]2OC(=O)c2cccc(Cl)c2)C3(C)C)CO[C@@H]1CCO	604 nM	4.1 nM	4.6 nM	5.5 nM	3	24	2.1	4.3	2.3	1800 nM		385 nM		
CC(=O)O[C@@]1([C@@H]2/C(C)=C(/O)C(=O)C3=C(C)[C@@H](OC(=O)[C@H](O)[C@H](CC(C)C)NC(=O)OC(C)(C)C)C[C@@](O)([C@H]2OC(=O)c2ccccc2)C3(C)C)CO[C@@H]1CCO	2620 nM	16.8 nM	27.5 nM	17.4 nM						2060 nM		2240 nM	8	129

Stronger by IC50 (A2780 [2]), values ahead:

IC50 (A2780 [2])	IC50 (A2780 [4])	IC50 (A2780 [9])	IC50 (A2780 [10])	Structure (SMILES)	Ratio IC50 [1]	Ratio IC50 [3]	Ratio IC50 (A2780 [5])	Ratio IC50 (A2780 [6])	Ratio IC50 [7]	IC50 [8]	Ratio IC50 (A2780 [11])	IC50 [12]	Ratio IC50 [13]	Ratio IC50 (A2780 [14])
452 nM	4 nM	1.7 nM	4.6 nM	CC(=O)O[C@@]1([C@@H]2/C(C)=C(/O)C(=O)C3=C(C)[C@@H](OC(=O)[C@H](O)[C@H](C=C(C)C)NC(=O)OC(C)(C)C)C[C@@](O)([C@H]2OC(=O)c2cccc(Cl)c2)C3(C)C)CO[C@@H]1CCO	3	24	2.1	4.3	2.3	751 nM	163	357 nM		
386 nM	5.7 nM	2.6 nM	4.6 nM	COc1cccc(C(=O)O[C@H]2[C@H]([C@]3(OC(C)=O)CO[C@@H]3CCO)/C(C)=C(/O)C(=O)C3=C(C)[C@@H](OC(=O)[C@H](O)[C@H](C=C(C)C)NC(=O)OC(C)(C)C)C[C@]2(O)C3(C)C)c1	3	24	2.1	4.3	2.3	1060 nM		490 nM		
356 nM	4.3 nM	3.5 nM	6.8 nM	COc1cccc(C(=O)O[C@H]2[C@H]([C@]3(OC(C)=O)CO[C@@H]3CCO)/C(C)=C(/O)C(=O)C3=C(C)[C@@H](OC(=O)[C@H](O)[C@H](CC(C)C)NC(=O)OC(C)(C)C)C[C@]2(O)C3(C)C)c1	3	24	2.1	4.3	2.3	1120 nM		211 nM		31
